According to PubChem BioAssay AID651717 (Broad Institute, 2012):

Test system: mESC Bmi1-luciferase reporter, firefly/renilla ratio, 24 h
Experiment: Bmi1-luciferase reporter activators in mESC, dose response, esBAF inhibitor project, mouse embryonic stem cells, cherry-pick (AID 651717);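 also: luciferase knocked into Bmi1 locus with EF-1a renilla as cell number control; rising ratio signals esBAF inhibition which derepresses Bmi1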

Row | Structure (SMILES) | AC40 [µM]
1 | CC1(C)CNC(=O)c2sc(NC(=O)c3ccccc3)nc2C1 | 4.76
2 | COC(=O)C(Cc1c[nH]c2ccccc12)NC(=O)c1ccc2nc[nH]c2c1 (stereo unspecified) | 14.7
3 | Clc1ccc(-c2cn3cccnc3n2)cc1Cl | 3.56
4 | CC(=O)c1ccc(N2CCN(C(=O)c3ccc(Cn4c(=S)[nH]c5ccc(N6CCOCC6)cc5c4=O)cc3)CC2)cc1 | 24.8
5 | Cc1cc(F)ccc1-c1cc(C(=O)Nc2ccc(F)cc2)[nH]n1 | 0.757
6 | COc1cccc(NC(=O)N2CCN(c3cccc(C)c3C)CC2)c1 | 4.88
7 | Cc1noc(C)c1COC(=O)c1cc(C)n(-c2ccccc2)c1C | 10
8 | O=C(Nc1ccc(F)c(Cl)c1)c1cc(C2CCCN(C(=O)C3CC3)C2)on1 (stereo unspecified) | < 0.26
9 | Fc1ccc(CSc2ccc(-c3cccs3)nn2)cc1 | 5.03
10 | COc1ccc(NC(=O)Nc2cc(C)ccc2F)cc1 | 0.738
11 | Cc1ccc(OCn2c(=O)sc3ccccc32)cc1 | 6.12
